In PubChem BioAssay (NCI):
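Dose response: 5 concentrations. Exposure: 48 h. Format: 96-well plates. Endpoint: linear interpolation; highest concentration if not reached. The concentration for 50% growth inhibition is given as GI50. TGI: total growth inhibition.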

Assays:
Experiment in all cases: NCI-60 cell line screen, 48 h
KM12 colon = system: KM12 colon
SK-MEL-2 melanoma = system: SK-MEL-2 melanoma
RPMI-8226 leukemia = system: RPMI-8226 leukemia
HOP-62 NSCLC = system: HOP-62 NSCLC
CAKI-1 renal = system: CAKI-1 renal
NCI/ADR-RES ovarian = system: NCI/ADR-RES ovarian
MALME-3M melanoma = system: MALME-3M melanoma
HOP-92 NSCLC = system: HOP-92 NSCLC
NCI-H522 lung = system: NCI-H522 lung
HS 578T breast = system: HS 578T breast
UACC-62 melanoma = system: UACC-62 melanoma
TK-10 renal = system: TK-10 renal
HL-60(TB) leukemia = system: HL-60(TB) leukemia
MDA-MB-468 breast = system: MDA-MB-468 breast
HCC-2998 colon = system: HCC-2998 colon
NCI-H226 lung = system: NCI-H226 lung
OVCAR-8 ovarian = system: OVCAR-8 ovarian
BT-549 breast = system: BT-549 breast
U251 CNS = system: U251 CNS
SK-MEL-5 melanoma = system: SK-MEL-5 melanoma
NCI-H460 lung = system: NCI-H460 lung
HCT-15 colon = system: HCT-15 colon
MDA-MB-435 = system: MDA-MB-435
LOX IMVI melanoma = system: LOX IMVI melanoma
UACC-257 melanoma = system: UACC-257 melanoma
SF-268 CNS = system: SF-268 CNS
PC-3 prostate = system: PC-3 prostate
RXF 393 renal = system: RXF 393 renal
SW-620 colon = system: SW-620 colon
M14 melanoma = system: M14 melanoma
786-0 renal = system: 786-0 renal
SNB-19 CNS = system: SNB-19 CNS
SF-295 CNS = system: SF-295 CNS
K-562 leukemia = system: K-562 leukemia
OVCAR-3 ovarian = system: OVCAR-3 ovarian
MCF7 breast = system: MCF7 breast
UO-31 renal = system: UO-31 renal
SK-MEL-28 melanoma = system: SK-MEL-28 melanoma
CCRF-CEM leukemia = system: CCRF-CEM leukemia
MOLT-4 leukemia = system: MOLT-4 leukemia
SK-OV-3 ovarian = system: SK-OV-3 ovarian
ACHN renal = system: ACHN renal
OVCAR-4 ovarian = system: OVCAR-4 ovarian
EKVX NSCLC = system: EKVX NSCLC
DU-145 prostate = system: DU-145 prostate
COLO 205 colon = system: COLO 205 colon
SNB-75 CNS = system: SNB-75 CNS
SN12C renal = system: SN12C renal
A549 NSCLC = system: A549 NSCLC
IGROV1 ovarian = system: IGROV1 ovarian
HT29 colon = system: HT29 colon
A498 renal = system: A498 renal
SF-539 CNS = system: SF-539 CNS
OVCAR-5 ovarian = system: OVCAR-5 ovarian
MDA-MB-231 breast = system: MDA-MB-231 breast
T-47D breast = system: T-47D breast
NCI-H23 lung = system: NCI-H23 lung
HCT-116 colon = system: HCT-116 colon

In the case of O=C(c1ccc(OCCN2CCOCC2)cc1)C1[C@H](c2ccc(Cl)cc2)[C@@H](c2ccccc2)NC12C(=O)Nc1ccc(Br)cc12 (stereo partly specified), the GI50 (KM12 colon) is reported as 2.98 µM, the TGI (KM12 colon) is reported as 7.26 µM and the GI50 (SK-MEL-2 melanoma) is reported as 2.32 µM. The TGI (SK-MEL-2 melanoma) was 4.8 µM, the GI50 (RPMI-8226 leukemia) was 4.05 µM and the TGI (RPMI-8226 leukemia) was 16.1 µM. The GI50 (HOP-62 NSCLC) was 2.83 µM, the TGI (HOP-62 NSCLC) was 6.58 µM and the GI50 (CAKI-1 renal) was 3 µM. It also gave a TGI (CAKI-1 renal) greater than 16.3 µM, a GI50 (NCI/ADR-RES ovarian) of 3.87 µM and a TGI (NCI/ADR-RES ovarian) of 12.1 µM. It also gave a GI50 (MALME-3M melanoma) of 2.39 µM, a TGI (MALME-3M melanoma) of 5.09 µM and a GI50 (HOP-92 NSCLC) of 2.35 µM. It also gave a TGI (HOP-92 NSCLC) of 6.69 µM, a GI50 (NCI-H522 lung) of 3.39 µM and a TGI (NCI-H522 lung) of 8.58 µM. For the same molecule, the GI50 (HS 578T breast) was 2.58 µM, the TGI (HS 578T breast) was 7.19 µM and the GI50 (UACC-62 melanoma) was 2.22 µM. For the same molecule, the TGI (UACC-62 melanoma) was 4.46 µM, the GI50 (TK-10 renal) was 3.62 µM and the TGI (TK-10 renal) was 11.1 µM. It also gave a GI50 (HL-60(TB) leukemia) of 4.2 µM, a TGI (HL-60(TB) leukemia) of 12 µM and a GI50 (MDA-MB-468 breast) of 2.83 µM. For the same molecule, the TGI (MDA-MB-468 breast) was 7.65 µM, the GI50 (HCC-2998 colon) was 2.61 µM and the TGI (HCC-2998 colon) was 5.37 µM. The GI50 (NCI-H226 lung) was 2.94 µM, the TGI (NCI-H226 lung) was 7.82 µM and the GI50 (OVCAR-8 ovarian) was 4.37 µM. For the same molecule, the TGI (OVCAR-8 ovarian) was greater than 16.3 µM, the GI50 (BT-549 breast) was 3.44 µM and the TGI (BT-549 breast) was 8.33 µM. It also gave a GI50 (U251 CNS) of 2.6 µM, a TGI (U251 CNS) of 5.52 µM and a GI50 (SK-MEL-5 melanoma) of 2.69 µM. It also gave a TGI (SK-MEL-5 melanoma) of 5.11 µM, a GI50 (NCI-H460 lung) of 2.8 µM and a TGI (NCI-H460 lung) of 5.59 µM. It also gave a GI50 (HCT-15 colon) of 2.69 µM, a TGI (HCT-15 colon) of 6.23 µM and a GI50 (MDA-MB-435) of 3.17 µM. It also gave a TGI (MDA-MB-435) of 7.28 µM, a GI50 (LOX IMVI melanoma) of 2.43 µM and a TGI (LOX IMVI melanoma) of 4.59 µM. The GI50 (UACC-257 melanoma) was 3.69 µM, the TGI (UACC-257 melanoma) was 13 µM and the GI50 (SF-268 CNS) was 3.66 µM. The TGI (SF-268 CNS) was greater than 16.3 µM, the GI50 (PC-3 prostate) was 2.96 µM and the TGI (PC-3 prostate) was 9.34 µM. The GI50 (RXF 393 renal) was 1.84 µM, the TGI (RXF 393 renal) was 4.57 µM and the GI50 (SW-620 colon) was 2.78 µM. The TGI (SW-620 colon) was 5.68 µM, the GI50 (M14 melanoma) was 2.56 µM and the TGI (M14 melanoma) was 5.44 µM. For the same molecule, the GI50 (786-0 renal) was 2.95 µM, the TGI (786-0 renal) was 6.69 µM and the GI50 (SNB-19 CNS) was 4.46 µM. The TGI (SNB-19 CNS) was greater than 16.3 µM, the GI50 (SF-295 CNS) was 2.4 µM and the TGI (SF-295 CNS) was 4.94 µM. It also gave a GI50 (K-562 leukemia) of 3.87 µM, a TGI (K-562 leukemia) greater than 16.3 µM and a GI50 (OVCAR-3 ovarian) of 2.56 µM. The TGI (OVCAR-3 ovarian) was 6.91 µM, the GI50 (MCF7 breast) was 2.92 µM and the TGI (MCF7 breast) was 10.2 µM. The GI50 (UO-31 renal) was 2.57 µM, the TGI (UO-31 renal) was 7.86 µM and the GI50 (SK-MEL-28 melanoma) was 2.7 µM. The TGI (SK-MEL-28 melanoma) was 5.08 µM, the GI50 (CCRF-CEM leukemia) was 4.42 µM and the TGI (CCRF-CEM leukemia) was 12.8 µM. The GI50 (MOLT-4 leukemia) was 2.9 µM, the TGI (MOLT-4 leukemia) was 10.2 µM and the GI50 (SK-OV-3 ovarian) was 4.46 µM. For the same molecule, the TGI (SK-OV-3 ovarian) was greater than 16.3 µM, the GI50 (ACHN renal) was 3.84 µM and the TGI (ACHN renal) was 14.3 µM. The GI50 (OVCAR-4 ovarian) was 4.33 µM, the TGI (OVCAR-4 ovarian) was greater than 16.3 µM and the GI50 (EKVX NSCLC) was 2.71 µM. For the same molecule, the TGI (EKVX NSCLC) was 11.2 µM, the GI50 (DU-145 prostate) was 3.91 µM and the TGI (DU-145 prostate) was 11.8 µM. It also gave a GI50 (COLO 205 colon) of 2.52 µM, a TGI (COLO 205 colon) of 4.93 µM and a GI50 (SNB-75 CNS) of 2.37 µM. It also gave a TGI (SNB-75 CNS) greater than 16.3 µM, a GI50 (SN12C renal) of 2.35 µM and a TGI (SN12C renal) of 4.53 µM. It also gave a GI50 (A549 NSCLC) of 4.27 µM, a TGI (A549 NSCLC) greater than 16.3 µM and a GI50 (IGROV1 ovarian) of 3.32 µM. The TGI (IGROV1 ovarian) was 9.74 µM, the GI50 (HT29 colon) was 2.49 µM and the TGI (HT29 colon) was 5.38 µM. The GI50 (A498 renal) was 3.05 µM, the TGI (A498 renal) was 7.55 µM and the GI50 (SF-539 CNS) was 2.73 µM. For the same molecule, the TGI (SF-539 CNS) was 5.19 µM, the GI50 (OVCAR-5 ovarian) was 2.95 µM and the TGI (OVCAR-5 ovarian) was 9.56 µM. The GI50 (MDA-MB-231 breast) was 2.66 µM, the TGI (MDA-MB-231 breast) was 5.09 µM and the GI50 (T-47D breast) was 3.09 µM. The TGI (T-47D breast) was greater than 16.3 µM, the GI50 (NCI-H23 lung) was 2.87 µM and the TGI (NCI-H23 lung) was 6.76 µM. The GI50 (HCT-116 colon) was 2.63 µM and the TGI (HCT-116 colon) was 5.45 µM.
